Test results: patent publication US20230265151A1, “GIP/GLP1 CO-AGONIST COMPOUNDS” (priority 2020, published 2023)
Read-outs that look alike come from different tables or passages of the source. *1 amine or outer side, *2 acyl side, *3 side chain or, on linkers, in order; H or OH if unused. Where a SMILES comes first, the peptide text is derived from it. Side-chain parts run from the residue outwards. [ ]: non-standard residue; d: D form. The star is where a group is joined. αMePhe(2-F) = C[C@](N)(Cc1ccccc1F)C(=O)O; γGlu = O=C(O)[C@H](CCC(=O)[*:2])N[*:1]; C14 diacid = O=C(O)CCCCCCCCCCCCC(=O)*; αMeY = C[C@](N)(Cc1ccc(O)cc1)C(=O)O; 4Pal = N[C@@H](Cc1ccncc1)C(=O)O; αMeL = CC(C)C[C@](C)(N)C(=O)O; Orn = NCCC[C@H](N)C(=O)O; AEEA = NCCOCCOCC(=O)O; Aib = CC(C)(N)C(=O)O

Key:
Format in all cases: cell-based
hGCGR = biological target: T1, hGCGR (Homo sapiens, UniProt P47871); assay: Functional cAMP formation (HTRF) in HEK-293 clonal cells expressing hGCGR, 0.1% bovine casein, without or with 1.0% human serum albumin; details: geometric mean
T1 construct: expressed in transfected cells
T1 sequence (P47871 26-477): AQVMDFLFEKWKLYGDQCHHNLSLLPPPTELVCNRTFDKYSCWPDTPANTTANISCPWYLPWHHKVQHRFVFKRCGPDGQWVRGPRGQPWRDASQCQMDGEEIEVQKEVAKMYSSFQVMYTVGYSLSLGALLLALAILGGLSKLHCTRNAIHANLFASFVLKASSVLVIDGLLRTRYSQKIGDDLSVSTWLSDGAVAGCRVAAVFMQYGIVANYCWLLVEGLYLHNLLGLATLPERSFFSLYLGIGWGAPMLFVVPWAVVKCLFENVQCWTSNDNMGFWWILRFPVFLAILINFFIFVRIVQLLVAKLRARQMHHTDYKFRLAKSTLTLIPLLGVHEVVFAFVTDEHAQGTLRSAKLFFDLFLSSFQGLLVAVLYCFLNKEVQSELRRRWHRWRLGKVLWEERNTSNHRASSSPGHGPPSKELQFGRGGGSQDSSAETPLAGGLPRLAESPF
In short: (§1)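 Readings of the HTRF 665/620 nm ratio, which falls as cAMP rises, were converted to nM cAMP using a standard curve after 30 min peptide exposure at 37° C.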

hGIPR = biological target: T2, hGIPR (Homo sapiens, UniProt P48546); assay: Functional cAMP formation (HTRF) in HEK-293 clonal cells expressing hGIPR, 0.1% bovine casein, without or with 1.0% human serum albumin; details: for EC50: geometric mean
T2 construct: expressed in transfected cells
T2 sequence (P48546 22-466): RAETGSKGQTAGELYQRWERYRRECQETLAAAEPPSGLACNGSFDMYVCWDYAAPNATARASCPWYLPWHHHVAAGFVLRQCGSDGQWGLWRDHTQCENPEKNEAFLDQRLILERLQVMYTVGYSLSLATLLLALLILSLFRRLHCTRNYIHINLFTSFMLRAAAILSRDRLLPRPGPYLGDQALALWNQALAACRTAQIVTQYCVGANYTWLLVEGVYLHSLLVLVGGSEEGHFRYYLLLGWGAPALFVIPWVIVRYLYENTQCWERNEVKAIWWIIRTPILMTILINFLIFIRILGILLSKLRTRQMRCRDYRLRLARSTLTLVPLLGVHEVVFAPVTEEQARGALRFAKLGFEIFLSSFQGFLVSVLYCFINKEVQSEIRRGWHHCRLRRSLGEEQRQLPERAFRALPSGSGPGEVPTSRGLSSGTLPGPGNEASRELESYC
In short: as §1

hGLP-1R = hGLP-1R (Homo sapiens, UniProt P43220); assay: Functional cAMP formation (HTRF) in HEK-293 clonal cells expressing hGLP-1R, 0.1% bovine casein, without or with 1.0% human serum albumin; design: expressed in transfected cells; details: for EC50: geometric mean
Chain of hGLP-1R (P43220 24-463): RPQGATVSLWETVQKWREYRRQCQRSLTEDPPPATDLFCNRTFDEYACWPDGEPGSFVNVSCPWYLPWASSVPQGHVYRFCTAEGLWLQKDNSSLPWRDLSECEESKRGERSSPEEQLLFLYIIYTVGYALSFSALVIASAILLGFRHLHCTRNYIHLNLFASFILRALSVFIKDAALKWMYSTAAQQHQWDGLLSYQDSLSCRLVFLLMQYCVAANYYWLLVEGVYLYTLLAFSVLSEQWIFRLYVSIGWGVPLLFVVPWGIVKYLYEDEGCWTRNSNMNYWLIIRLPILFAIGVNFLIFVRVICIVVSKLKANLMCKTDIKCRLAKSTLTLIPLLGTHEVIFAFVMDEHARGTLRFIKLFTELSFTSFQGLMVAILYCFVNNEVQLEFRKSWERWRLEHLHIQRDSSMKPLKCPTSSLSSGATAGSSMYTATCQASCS
In short: as §1

[1] = cAMP, incubated at 37° C., 0.1% bovine casein (no human serum albumin), read-out: hGCGR EC50, nM (SEM, n)
[2] = HEK293, percent of maximal response to GIP(1-42)NH2, 37° C., 0.1% bovine casein, arithmetic mean, read-out: hGIPR Emax, % ± SEM
[3] = cAMP, incubated at 37° C., 0.1% bovine casein (no human serum albumin), read-out: hGLP-1R EC50, nM (SEM, n)
[4] = 0.1% bovine casein and 1.0% human serum albumin, 37° C., read-out: hGCGR EC50, nM (SEM, n)
[5] = 0.1% bovine casein and 1.0% human serum albumin, 37° C., read-out: hGIPR EC50, nM (SEM, n)
[6] = HEK293, 0.1% bovine casein and 1.0% human serum albumin, 37° C., percent of maximal response to GIP(1-42)NH2, read-out: hGIPR Emax, % ± SEM
[7] = cAMP, incubated at 37° C., 0.1% bovine casein (no human serum albumin), read-out: hGIPR EC50, nM (SEM, n)
[8] = 0.1% bovine casein and 1.0% human serum albumin, 37° C., read-out: hGLP-1R EC50, nM (SEM, n)

Emax (hGLP-1R; HEK293, 0.1% bovine casein and 1.0% human serum albumin, 37° C., percent of maximal response to GLP-1(7-36)NH2, read-out: hGLP-1R Emax, % ± SEM) [%] | Emax (hGLP-1R; HEK293, percent of maximal response to GLP-1(7-36)NH2, 37° C., 0.1% bovine casein, arithmetic mean, read-out: hGLP-1R Emax, % ± SEM) [%] | Compound | EC50 (hGCGR; [1]) [nM] | Emax (hGIPR; [2]) [%] | EC50 (hGLP-1R; [3]) [nM] | EC50 (hGCGR; [4]) [nM] | EC50 (hGIPR; [5]) [nM] | Emax (hGIPR; [6]) [%] | EC50 (hGIPR; [7]) [nM] | EC50 (hGLP-1R; [8]) [nM] | EC50 (hGCGR; hGCGR EC50, nM (SEM, n), 0.1% bovine casein and 1.0% human serum albumin, 37° C.) [nM] | EC50 (hGCGR; hGCGR EC50, nM (SEM, n), cAMP, incubated at 37° C., 0.1% bovine casein (no human serum albumin)) [nM] | Emax (hGIPR; HEK293, read-out: hGIPR Emax, % ± SEM, 0.1% bovine casein and 1.0% human serum albumin, 37° C., percent of maximal response to GIP(1-42)NH2) [%] | Emax (hGIPR; HEK293, read-out: hGIPR Emax, % ± SEM, percent of maximal response to GIP(1-42)NH2, 37° C., 0.1% bovine casein, arithmetic mean) [%] | EC50 (hGIPR; hGIPR EC50, nM (SEM, n), 0.1% bovine casein and 1.0% human serum albumin, 37° C.) [nM] | EC50 (hGIPR; hGIPR EC50, nM (SEM, n), cAMP, incubated at 37° C., 0.1% bovine casein (no human serum albumin)) [nM] | Emax (hGLP-1R; HEK293, read-out: hGLP-1R Emax, % ± SEM, 0.1% bovine casein and 1.0% human serum albumin, 37° C., percent of maximal response to GLP-1(7-36)NH2) [%] | Emax (hGLP-1R; HEK293, read-out: hGLP-1R Emax, % ± SEM, percent of maximal response to GLP-1(7-36)NH2, 37° C., 0.1% bovine casein, arithmetic mean) [%] | EC50 (hGLP-1R; hGLP-1R EC50, nM (SEM, n), 0.1% bovine casein and 1.0% human serum albumin, 37° C.) [nM] | EC50 (hGLP-1R; hGLP-1R EC50, nM (SEM, n), cAMP, incubated at 37° C., 0.1% bovine casein (no human serum albumin)) [nM]
 |  | CC[C@H](C)[C@H](NC(=O)[C@H](CC(C)C)NC(=O)[C@](C)(Cc1ccc(O)cc1)NC(=O)[C@@H](CCC(=O)O)NC(=O)[C@@H](NC(=O)[C@H](Cc1ccccc1)NC(=O)[C@H](CCC(=O)O)NC(=O)C1(NC(=O)[C@H](CCC(N)=O)NC(=O)[C@H](C)NC(=O)[C@H](CCCCNC(=O)COCCOCCNC(=O)COCCOCCNC(=O)CC[C@H](NC(=O)CCCCCCCCCCCCC(=O)O)C(=O)O)NC(=O)[C@H](CCCN)NC(=O)[C@H](CC(=O)O)NC(=O)[C@H](CC(C)C)NC(=O)[C@](C)(CC(C)C)NC(=O)[C@@H](NC(=O)[C@H](CO)NC(=O)[C@H](Cc2ccncc2)NC(=O)[C@H](CC(=O)O)NC(=O)[C@H](CO)NC(=O)[C@@H](NC(=O)[C@](C)(Cc2ccccc2F)NC(=O)[C@@H](NC(=O)CNC(=O)[C@H](CCC(=O)O)NC(=O)C(C)(C)NC(=O)[C@@H](N)Cc2ccc(O)cc2)[C@@H](C)O)[C@@H](C)O)[C@@H](C)CC)CCCC1)[C@@H](C)CC)C(=O)N[C@@H](CCC(=O)O)C(=O)NCC(=O)NCC(=O)N[C@@H](CCCCNC(=O)COCCOCCNC(=O)COCCOCCNC(=O)CC[C@H](NC(=O)CCCCCCCCCCCCC(=O)O)C(=O)O)C(=O)N[C@@H](CO)C(=O)N[C@@H](CO)C(=O)NCC(=O)N[C@@H](C)C(=O)N1CCC[C@H]1C(=O)N1CCC[C@H]1C(=O)N1CCC[C@H]1C(=O)N[C@@H](CO)C(N)=O [Example 170] | > 9950 | 93.9 | 1.03 |  |  |  |  |  |  |  |  |  |  |  |  |  |  | 
 |  | CC[C@H](C)[C@H](NC(=O)[C@H](CC(C)C)NC(=O)[C@](C)(Cc1ccc(O)cc1)NC(=O)[C@@H](CCC(=O)O)NC(=O)[C@@H](NC(=O)[C@H](Cc1ccccc1)NC(=O)[C@H](CCCCNC(=O)COCCOCCNC(=O)CC[C@H](NC(=O)CCCCCCCCCCCCC(=O)O)C(=O)O)NC(=O)C(C)(C)NC(=O)[C@H](CCC(N)=O)NC(=O)[C@H](C)NC(=O)[C@H](CCCCNC(=O)COCCOCCNC(=O)CC[C@H](NC(=O)CCCCCCCCCCCCC(=O)O)C(=O)O)NC(=O)[C@H](CCCN)NC(=O)[C@H](CC(=O)O)NC(=O)[C@H](CC(C)C)NC(=O)[C@](C)(CC(C)C)NC(=O)[C@@H](NC(=O)[C@H](CO)NC(=O)[C@H](Cc1ccncc1)NC(=O)[C@H](CC(=O)O)NC(=O)[C@H](CO)NC(=O)[C@@H](NC(=O)[C@](C)(Cc1ccccc1F)NC(=O)[C@@H](NC(=O)CNC(=O)[C@H](CCC(=O)O)NC(=O)C(C)(C)NC(=O)[C@@H](N)Cc1ccc(O)cc1)[C@@H](C)O)[C@@H](C)O)[C@@H](C)CC)[C@@H](C)CC)C(=O)N[C@@H](CCC(=O)O)C(=O)NCC(=O)NCC(=O)N1CCC[C@H]1C(=O)N[C@@H](CO)C(=O)N[C@@H](CO)C(=O)NCC(=O)N[C@@H](C)C(=O)N1CCC[C@H]1C(=O)N1CCC[C@H]1C(=O)N1CCC[C@H]1C(=O)N[C@@H](CO)C(N)=O [Example 76] | > 9950 |  | 0.527 | > 9950 | 1.4 | 89.9 ± 2.11 | 0.0205 | 28.9 |  |  |  |  |  |  |  |  |  | 
112 ± 8.5 | 98.9 ± 4.64 | CC[C@H](C)[C@H](NC(=O)[C@H](CC(C)C)NC(=O)[C@](C)(Cc1ccc(O)cc1)NC(=O)[C@H](CCCCNC(=O)COCCOCCNC(=O)COCCOCCNC(=O)CC[C@H](NC(=O)CCCCCCCCCCCCC(=O)O)C(=O)O)NC(=O)[C@@H](NC(=O)[C@H](Cc1ccccc1)NC(=O)[C@H](CCC(=O)O)NC(=O)C(C)(C)NC(=O)[C@H](CCC(N)=O)NC(=O)[C@H](C)NC(=O)[C@H](CCCCNC(=O)COCCOCCNC(=O)COCCOCCNC(=O)CC[C@H](NC(=O)CCCCCCCCCCCCC(=O)O)C(=O)O)NC(=O)[C@H](CCCN)NC(=O)[C@H](CC(=O)O)NC(=O)[C@H](CC(C)C)NC(=O)[C@](C)(CC(C)C)NC(=O)[C@@H](NC(=O)[C@H](CO)NC(=O)[C@H](Cc1ccncc1)NC(=O)[C@H](CC(=O)O)NC(=O)[C@H](CO)NC(=O)[C@@H](NC(=O)[C@](C)(Cc1ccccc1F)NC(=O)[C@@H](NC(=O)CNC(=O)[C@H](CCC(=O)O)NC(=O)C(C)(C)NC(=O)[C@@H](N)Cc1ccc(O)cc1)[C@@H](C)O)[C@@H](C)O)[C@@H](C)CC)[C@@H](C)CC)C(=O)N[C@@H](CCC(=O)O)C(=O)NCC(=O)N[C@@H](CCCN)C(N)=O [Example 190] (H-Y[Aib]EGT[αMePhe(2-F)]TSD[4Pal]SI[αMeL]LD[Orn]K([AEEA-AEEA-γGlu-C14 diacid])AQ[Aib]EFIK([AEEA-AEEA-γGlu-C14 diacid])[αMeY]LIEG[Orn]-NH2; N-terminus assumed) | > 9950 | 94.5 ± 0.611 | 0.303 | > 9950 | 1.55 | 82.8 ± 3.36 | 0.024 | 28.9 |  |  |  |  |  |  |  |  |  | 
 |  | CC[C@H](C)[C@H](NC(=O)[C@H](CCCN)NC(=O)[C@H](CC(=O)O)NC(=O)[C@H](CC(C)C)NC(=O)[C@](C)(CC(C)C)NC(=O)[C@@H](NC(=O)C(C)(C)NC(=O)[C@H](Cc1ccncc1)NC(=O)[C@H](CC(=O)O)NC(=O)[C@H](CO)NC(=O)[C@@H](NC(=O)[C@](C)(Cc1ccccc1F)NC(=O)[C@@H](NC(=O)CNC(=O)[C@H](CCC(=O)O)NC(=O)C(C)(C)NC(=O)[C@@H](N)Cc1ccc(O)cc1)[C@@H](C)O)[C@@H](C)O)[C@@H](C)CC)C(=O)N[C@@H](C)C(=O)N[C@@H](CCC(N)=O)C(=O)NC(C)(C)C(=O)N[C@@H](CCCCNC(=O)COCCOCCNC(=O)COCCOCCNC(=O)CC[C@H](NC(=O)CCCCCCCCCCCCC(=O)O)C(=O)O)C(=O)N[C@@H](Cc1ccccc1)C(=O)N[C@H](C(=O)N[C@@H](CCCCNC(=O)COCCOCCNC(=O)COCCOCCNC(=O)CC[C@H](NC(=O)CCCCCCCCCCCCC(=O)O)C(=O)O)C(=O)N[C@@](C)(Cc1ccc(O)cc1)C(=O)N[C@@H](CC(C)C)C(=O)N[C@H](C(=O)N[C@@H](CCC(=O)O)C(=O)NCC(=O)NCC(=O)N1CCC[C@H]1C(=O)N[C@@H](CO)C(=O)N[C@@H](CO)C(=O)NCC(=O)N[C@@H](C)C(=O)N1CCC[C@H]1C(=O)N1CCC[C@H]1C(=O)N1CCC[C@H]1C(=O)N[C@@H](CO)C(N)=O)[C@@H](C)CC)[C@@H](C)CC [Example 218] (H-Y[Aib]EGT[αMePhe(2-F)]TSD[4Pal][Aib]I[αMeL]LD[Orn]IAQ[Aib]K([AEEA-AEEA-γGlu-C14 diacid])FIK([AEEA-AEEA-γGlu-C14 diacid])[αMeY]LIEGGPSSGAPPPS-NH2; N-terminus assumed) |  |  |  |  |  |  |  |  | > 9950 | > 9950 | 95.9 | 90.2 | 3.27 | 0.0515 | 121 | 92.6 | 36.6 | 0.714
